# Measurements from publication PMC8112869, “Therapeutic inhibition of keratinocyte TRPV3 sensory channel by local anesthetic dyclonine” (eLife, 2021).
# Experiments:
# Assay type in all cases: cell-based
# human TRPV3 (hTRPV3) = target: T1, human TRPV3 (hTRPV3) (Homo sapiens, UniProt Q8NET8); assay: Whole-cell recording of 2-APB-evoked currents in hTRPV3-expressing HEK 293T cells
# T1 construct: expressed in transfected cells; host or cells: HEK 293T
# Description: (§1) The WT mouse TRPV3 (mTRPV3), human TRPV3 (hTRPV3), rat TRPV1, rat TRPV2, rat TRPM8, and mouse TRPA1 cDNAs were generously provided by Dr. Feng Qin (State University of New York at Buffalo, Buffalo, USA). The GFP-mTRPV3 WT and the mutants (mTRPV3-G573S and mTRPV3-G573C) in pcDNA4/TO vector were gifts from Dr. Michael X Zhu (The University of Texas Health Science Center at Houston, Houston, USA). The WT fTRPV3 was kindly provided by Dr. Makoto Tominaga (Department of Physiological Sciences, SOKENDAI, Okazaki, Japan). All mutations were made using the overlap-extension polymerase chain reaction method as previously described ([Tian et al., 2019]). The resulting mutations were then verified by DNA sequencing. […]
# (§2) Conventional whole-cell and excised patch-clamp recording methods were used. […] For a subset of recordings, currents were amplified using an Axopatch 200B amplifier (Molecular Devices, Sunnyvale, CA) and recorded through a BNC-2090/MIO acquisition system (National Instruments, Austin, TX) using QStudio developed by Dr. Feng Qin at State University of New York at Buffalo. […] As determined by the conductance tests, the solution around a patch under study was fully controlled by the application of a flow rate of 100 μl/min or greater. […]
# frog TRPV3 (fTRPV3) = frog TRPV3 (fTRPV3) (Xenopus tropicalis, UniProt F6UZP3); assay: Whole-cell recording of 2-APB-evoked currents in fTRPV3-expressing HEK 293T cells
# Description: as §1, §2
# TRPV1 = target: T2, TRPV1 (Rattus norvegicus, UniProt O35433); assay: Whole-cell recording of capsaicin-activated TRPV1 in HEK 293T cells
# T2 construct: expressed in transfected cells; host or cells: HEK 293T
# Description: as §1, §2
# frog TRPV3 (fTRPV3), sequence (F6UZP3 entry or part of it): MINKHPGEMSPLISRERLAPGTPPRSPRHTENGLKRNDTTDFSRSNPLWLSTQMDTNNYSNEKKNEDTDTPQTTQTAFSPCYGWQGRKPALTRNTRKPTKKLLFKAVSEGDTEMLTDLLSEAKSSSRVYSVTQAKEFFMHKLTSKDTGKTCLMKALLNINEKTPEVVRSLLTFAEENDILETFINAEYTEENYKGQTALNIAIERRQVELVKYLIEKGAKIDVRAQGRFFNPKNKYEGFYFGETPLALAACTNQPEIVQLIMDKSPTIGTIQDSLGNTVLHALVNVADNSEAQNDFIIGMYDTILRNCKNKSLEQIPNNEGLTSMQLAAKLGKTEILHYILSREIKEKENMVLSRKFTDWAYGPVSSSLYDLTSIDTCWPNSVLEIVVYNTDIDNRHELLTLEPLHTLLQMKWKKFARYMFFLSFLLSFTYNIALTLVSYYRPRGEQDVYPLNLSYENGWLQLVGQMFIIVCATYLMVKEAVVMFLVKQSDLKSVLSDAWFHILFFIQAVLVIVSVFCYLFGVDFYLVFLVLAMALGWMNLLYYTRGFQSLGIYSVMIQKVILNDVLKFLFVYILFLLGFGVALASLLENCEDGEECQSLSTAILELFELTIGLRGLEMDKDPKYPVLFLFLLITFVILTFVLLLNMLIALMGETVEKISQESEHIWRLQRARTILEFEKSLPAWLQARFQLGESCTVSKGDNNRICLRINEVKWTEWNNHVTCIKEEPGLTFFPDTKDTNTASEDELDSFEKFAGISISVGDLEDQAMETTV
# T1 sequence (Q8NET8 whole entry): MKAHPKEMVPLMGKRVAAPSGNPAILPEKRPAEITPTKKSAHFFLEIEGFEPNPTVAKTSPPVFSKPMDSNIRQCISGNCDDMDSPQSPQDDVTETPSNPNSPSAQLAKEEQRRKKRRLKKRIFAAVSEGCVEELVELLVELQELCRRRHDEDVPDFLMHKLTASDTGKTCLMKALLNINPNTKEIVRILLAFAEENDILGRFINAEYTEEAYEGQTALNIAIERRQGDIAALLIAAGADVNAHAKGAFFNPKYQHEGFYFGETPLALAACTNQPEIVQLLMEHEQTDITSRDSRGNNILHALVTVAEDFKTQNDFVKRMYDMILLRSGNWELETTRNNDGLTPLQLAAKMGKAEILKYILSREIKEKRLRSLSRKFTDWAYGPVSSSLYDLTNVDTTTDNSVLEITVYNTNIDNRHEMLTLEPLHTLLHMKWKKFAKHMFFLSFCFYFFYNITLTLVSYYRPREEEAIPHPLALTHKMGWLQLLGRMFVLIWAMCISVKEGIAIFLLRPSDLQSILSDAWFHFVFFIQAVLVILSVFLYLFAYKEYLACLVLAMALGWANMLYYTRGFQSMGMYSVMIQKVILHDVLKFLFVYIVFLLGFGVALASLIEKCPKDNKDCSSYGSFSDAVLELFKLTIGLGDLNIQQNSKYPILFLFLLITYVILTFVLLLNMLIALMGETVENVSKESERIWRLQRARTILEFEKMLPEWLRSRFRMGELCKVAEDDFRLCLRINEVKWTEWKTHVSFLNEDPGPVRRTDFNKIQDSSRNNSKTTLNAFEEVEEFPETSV
# T2 sequence (O35433 whole entry): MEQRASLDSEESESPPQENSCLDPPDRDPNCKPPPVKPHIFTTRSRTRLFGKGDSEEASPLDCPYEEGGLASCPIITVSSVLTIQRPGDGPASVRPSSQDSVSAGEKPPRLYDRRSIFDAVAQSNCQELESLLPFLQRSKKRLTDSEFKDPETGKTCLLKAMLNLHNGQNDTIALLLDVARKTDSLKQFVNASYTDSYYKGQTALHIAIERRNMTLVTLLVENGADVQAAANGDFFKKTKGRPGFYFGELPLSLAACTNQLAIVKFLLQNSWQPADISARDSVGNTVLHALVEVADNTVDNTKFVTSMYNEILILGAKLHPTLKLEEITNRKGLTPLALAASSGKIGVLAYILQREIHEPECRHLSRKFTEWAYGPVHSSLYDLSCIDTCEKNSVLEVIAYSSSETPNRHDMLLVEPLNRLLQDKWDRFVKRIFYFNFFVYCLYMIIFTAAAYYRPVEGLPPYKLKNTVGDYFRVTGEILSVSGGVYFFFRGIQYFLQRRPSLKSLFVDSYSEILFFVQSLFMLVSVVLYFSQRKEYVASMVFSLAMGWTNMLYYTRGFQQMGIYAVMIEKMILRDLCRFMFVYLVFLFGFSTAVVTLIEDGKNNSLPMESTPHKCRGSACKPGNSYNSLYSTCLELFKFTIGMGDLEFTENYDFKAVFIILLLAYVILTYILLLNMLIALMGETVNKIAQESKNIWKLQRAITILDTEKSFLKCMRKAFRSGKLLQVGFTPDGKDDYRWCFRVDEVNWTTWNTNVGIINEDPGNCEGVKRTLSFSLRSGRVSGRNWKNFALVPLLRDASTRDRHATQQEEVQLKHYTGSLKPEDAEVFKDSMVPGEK
smiles,measurement,setting,value
CCCCOc1ccc(C(=O)CCN2CCCCC2)cc1 [dyclonine],Hill coefficient nH,human TRPV3 (hTRPV3),1.91 ± 0.14
same,IC50,"human TRPV3 (hTRPV3); 2-APB (100 μM)-evoked, –60 mV, read-out: IC50 on blocking of hTRPV3",16.2 ± 0.72 µM
same,Hill coefficient nH,frog TRPV3 (fTRPV3),1.6 ± 0.34
same,IC50,"frog TRPV3 (fTRPV3); 3 mM 2-APB-evoked, –60 mV, read-out: IC50 on inhibition of fTRPV3 currents",12.3 µM
same,Hill coefficient nH,TRPV1,2.0 ± 0.31
same,reduction in current amplitude,"TRPV1; 10 μM dyclonine, capsaicin-activated",2% ± 1%
